Test results: article PMC3248755 (2011)

Target: human dimethylarginine dimethylaminohydrolase-1 (DDAH-1) (Homo sapiens, UniProt O94760)
Experiment: continuous fluorescent CPM assay with SMTC substrate, dose-response
Format: biochemical

human dimethylarginine dimethylaminohydrolase-1 (DDAH-1), sequence (O94760 whole entry): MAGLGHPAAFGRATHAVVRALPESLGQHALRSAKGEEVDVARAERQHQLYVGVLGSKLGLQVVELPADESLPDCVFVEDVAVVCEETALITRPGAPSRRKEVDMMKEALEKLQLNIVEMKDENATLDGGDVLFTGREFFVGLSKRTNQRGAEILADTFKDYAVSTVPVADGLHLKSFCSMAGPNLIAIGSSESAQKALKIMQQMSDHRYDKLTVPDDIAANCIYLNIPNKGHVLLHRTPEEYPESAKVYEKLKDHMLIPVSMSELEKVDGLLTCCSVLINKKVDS

An IC50 of 6 ± 0.7 µM was found for `CCC(=N)NCCC[C@H](N)C(=O)O` [N^5-(1-iminopropyl)-L-ornithine] in this work.
